Reference: patent US9572786B2, “Use of capsiate or dihydrocapsidate” (Catholic University Industry Academy Cooperation Foundation, priority 2007, dated 2017)

Legend:
HaCaT cells = test: UV-induced intracellular ROS production (DCFH-DA fluorescence microscopy); format: cell-based, human; settings: 50 μM, UV 100 J/m^2, vs UV only control group
Method: 5×10^5 HaCaT cells (acquired from Professor N. Fusenig of the German Cancer Research Center), which are a human keratinocyte cell line, were placed on a 60 mm Petri dish (1×10^6 cells for a 100 mm Petri dish) and cultured for 24 hours in Dulbecco's modified Eagle's medium (DMEM) containing 10% fetal bovine serum (FBS).
After treating with 50 μM capsiate for 30 minutes, the cells were washed 3 times with phosphate buffered saline (PBS). In order to induce the production of ROS, UV was irradiated at an intensity of 100 J/m^2, using a UV lamp (FSX 24 T12/UVB/HO, Pansol™ USA). Immediately after the UV irradiation, the cells were washed again with PBS and further cultured for 2 hours in DMEM containing 1% FBS, which was treated with capsiate at the same concentration as in the pre-treatment. After treating with 25 μM 2,7-dichlorofliuorescin diacetate (DCFH-DA) in Hank's balanced salt solution (HBSS, BioWhittaker Cambrex, USA) for 30 minutes, the cells were washed 3 times with PBS.
The treated cells were observed under a fluorescence microscope (Carl Zeiss, USA) in order to measure the ROS produced by the UV irradiation. […]
Inhibition effect on the production of intracellular ROS induced by UV was measured in the same manner as Example 1-1, except for using dihydrocapsiate instead of capsiate.

[1] = system: Human umbilical vein endothelial cells (HUVEC); test: VEGF-induced proliferation of endothelial cells, MTT assay; format: cell-based; settings: for proliferation of HUVEC induced by VEGF (MTT): 1, 5, 10, 25 μM, 10 ng/mL VEGF, 48 hours; for growth of HUVEC without VEGF (cell toxicity): concentration up to 50 μM without VEGF, not shown in figure
Method: MTT assay was carried out investigate the effect of capsiate or dihydrocapsiate on the proliferation of endothelial cells (EC) induced by VEGF.
Human umbilical vein endothelial cells (HUVEC) were placed on a gelatin-coated 24-well plate at a concentration of 2×10^4 cells/well. After culturing for 24 hours, followed by washing twice with M199 medium (Invitrogen, USA), the cells were cultured for 6 hours in M199 medium containing 1% FBS. After addition of capsiate or dihydrocapsiate at different concentrations (1 μM, 5 μM, 10 μM, 25 μM), followed by pre-culturing for 30 minutes, 10 ng/mL VEGF (Upstate, USA) was added and the cells were cultured for 48 hours. Then, 3-(4,5-dimethylthiazol-2-yl)-2,5-diphenyltetrazolium bromide salt (MTT) solution (0.5 mg/mL) was added and the cells were cultured at 37° C. for 3 hours. Remaining MTT was cautiously removed and the formed crystal was dissolved in DMSO for 30 minutes and subjected to absorbance measurement at 560 nm after mixing well for 5 minutes.

HUVEC [2] = test: VEGF-induced proliferation of endothelial cells, 3H-thymidine incorporation assay; format: cell-based, human; settings: 25 μM; 10 ng/mL VEGF
Method: The inhibition effect of capsiate or dihydrocapsiate on the proliferation of EC induced by VEGF was investigated by ^3H-thymidine incorporation assay according to a method published in the literature [Lee O H et al., 1999, Biochem. Biophys. Res. Commun., 264: 743-750].
In brief, HUVEC were placed on a gelatin-coated 24-well plate at a concentration of 2×10^4 cells/well. After culturing for 24 hours, followed by washing twice with M199 medium (Invitrogen, USA), the cells were cultured for 6 hours in M199 medium containing 1% FBS. After addition of 25 μM capsiate or dihydrocapsiate, followed by pre-culturing for 30 minutes, 10 ng/mL VEGF was added and the cells were cultured for 30 hours. Then, 0.5 μCi/mL ^3H-thymidine was added and the cells were cultured for 6 hours.
DNA was precipitated from the cultured cells in 10% trichloroacetic acid at 4° C. for 30 minutes and washed twice with water. The DNA was dissolved in 0.2 N NaOH/0.1% SDS and measured using a liquid scintillation counter.

HUVEC [3] = test: Chemotactic mobility, Transwell assay; format: cell-based, human; settings: 1, 5, 10, 25 μM; 4 hours
Method: Transwell assay (Corning Costar, USA) was carried out in order to investigate the effect of capsiate or dihydrocapsiate on chemotactic mobility of HUVEC [Lee O H et al., 1999, Biochem. Biophys. Res. Commun. 264; 743-750].
In brief, the bottom side of a filter was coated with 10 μg of gelatin and M199 medium containing VEGF and 1% FBS was added to the lower well. HUVEC were prepared by treating with trypsin and diluting in M199 medium containing 1% FBS to a concentration of 1×10^6 cells/mL. Capsiate or dihydrocapsiate at different concentrations (1 μM, 5 μM, 10 μM, 25 μM) were pre-treated at room temperature for 30 minutes. The cells in […] of medium were added to the upper well and cultured at 37° C. for 4 hours. After fixation, followed by staining with hematoxylin and eosin, the cells remaining on the top surface of the filter without moving were removed. The cells that migrated to the bottom side of the filter were observed and counted using an optical microscope (×200).

aortic ring = test: Sprouting from the aortic ring; format: cell-based, Sprague Dawley rat; settings: rat aortic ring in Matrigel; 6 days; evaluation 0 to 5 points
Method: The degree of sprouting from the aortic ring caused by treatment with VEGF was investigated as follows in order to identify the effect of capsiate or dihydrocapsiate on VEGF-induced angiogenesis.
The aortic ring was prepared from the artery of Sprague Dawley rat (6-8 weeks old). The aortic ring was placed on a 48-well plate coated with 120 μL of Matrigel and 50 μL of Matrigel was further added. Then, 200 μL of a medium (human endothelial serum-free medium, Invitrogen, USA) containing capsiate or dihydrocapsiate and VEGF or a medium containing only VEGF was added. 6 days later, the cells were fixed, stained using Diff-Quick and subjected to evaluation (0 to 5 points) in a double blinded manner.

C57/BL6 mouse = test: Mouse Matrigel plug assay; format: in vivo; settings: 60 μg in 0.6 mL Matrigel with 100 ng VEGF, subcutaneous injection, 6 days
Method: Mouse Matrigel plug was carried out in order to investigate the effect of capsiate or dihydrocapsiate on VEGF-induced angiogenesis in vivo [Min K J et al., 2007, Blood, 15: 1495-1502].
0.6 mL of Matrigel containing 60 μg of capsiate or dihydrocapsiate, 100 ng of VEGF and 10 units of heparin or Matrigel containing 100 ng of VEGF only was administered to C57/BL6 mouse (Orient, Korea) through subcutaneous injection. 6 days later, the produced Matrigel plug was taken out.

| SMILES | production of intracellular ROS induced by UV (HaCaT cells) | proliferation of HUVEC induced by VEGF (MTT) [1] | growth of HUVEC without VEGF (cell toxicity) [1] | VEGF-increased DNA synthesis in HUVEC (3H-thymidine incorporation) (HUVEC [2]) | VEGF-increased chemotactic mobility of HUVEC (HUVEC [3]) | VEGF-promoted sprouting from the aortic ring (aortic ring) | VEGF-induced angiogenesis in Matrigel plug (colour) (C57/BL6 mouse) |
| --- | --- | --- | --- | --- | --- | --- | --- |
| COc1cc(COC(=O)CCCCCCC(C)C)ccc1O [dihydrocapsiate] | decreased remarkably | inhibited by capsiate or dihydrocapsiate in a concentration-dependent manner | grew normally | inhibited the DNA synthesis | decreased in a concentration-dependent manner | inhibited the sprouting in a concentration-dependent manner | angiogenesis hardly occurred |
| COc1cc(COC(=O)CCCC/C=C/C(C)C)ccc1O [capsiate] | decreased remarkably | inhibited by capsiate or dihydrocapsiate in a concentration-dependent manner | grew normally | inhibited the DNA synthesis | decreased in a concentration-dependent manner | inhibited the sprouting in a concentration-dependent manner | angiogenesis hardly occurred |
